The structures appear in SMILES notation. pIC50: −log10 of the molar value.

T1 sequence (P95493 230-664): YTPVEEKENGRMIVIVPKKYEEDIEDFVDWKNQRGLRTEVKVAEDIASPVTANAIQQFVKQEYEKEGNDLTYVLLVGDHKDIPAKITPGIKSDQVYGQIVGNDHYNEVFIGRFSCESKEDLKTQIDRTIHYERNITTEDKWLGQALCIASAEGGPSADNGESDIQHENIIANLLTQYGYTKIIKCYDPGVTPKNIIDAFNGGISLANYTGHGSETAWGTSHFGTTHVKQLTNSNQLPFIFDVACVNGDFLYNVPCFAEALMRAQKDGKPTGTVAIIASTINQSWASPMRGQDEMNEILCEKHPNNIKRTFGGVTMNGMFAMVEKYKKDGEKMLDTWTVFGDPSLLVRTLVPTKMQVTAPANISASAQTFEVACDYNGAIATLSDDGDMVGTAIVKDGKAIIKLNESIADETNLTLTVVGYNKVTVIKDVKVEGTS

One test has as its target T1, RgpB (Porphyromonas gingivalis, UniProt P95493).
T1 construct: 0.02 nM RgpB, isolated from culture of Porphyromonas gingivalis; endogenous in cells
In words: RgpB inhibition, fluorogenic assay. The class given is biochemical. The following applies: Activity (RgpB IC50), 0.02 nM RgpB, 10 μM Boc-Phe-Ser-Arg-MCA, 90 minutes, 37° C., pH=7.5. The method, then:
The capacities of compounds of the present invention to inhibit the activity of RgpB were measured in a fluorogenic assay similar to those described in Barret Biochemical Journal. 1980, 187(3), 909. The specific assay conditions were as follows. Buffer: pH=7.5, 100 mM Tris-HCl, 75 mM NaCl, 2.5 mM CaCl2, 10 mM cysteine, 1% DMSO after all additions. Protein: 0.02 nM RgpB, isolated from culture of Porphyromonas gingivalis, as described in Pike et al. J. Biol. Chem. 1994, 269(1), 406, and Potempa and Nguyen. Current Protocols in Protein Scienc. 2007, 21.20.1-21.20.27. Fluorogenic substrate: 10 μM Boc-Phe-Ser-Arg-MCA. Time=90 minutes. Temperature=37° C. Each compound: 10 concentrations, starting at either 100 μM or 100 nM, with lower concentrations generated by serial 3-fold dilutions. By testing a range of concentrations for each compound, the concentration required to inhibit the activity of RgpB by 50% (the “IC50”) was determined.
On to `CC(CN(C)C#N)Oc1ccnc(N)c1` (stereo not drawn) [Compound 15, N-(2-((2-aminopyridin-4-yl)oxy)propyl)-N-methylcyanamide], for which the pIC50 – broadly, the IC50 on a negative log10 scale, so that one unit is a factor of ten – was 6.00 to 7.00.
Still for that read-out and setting: the figure for `N#CN1CCC[C@@H]1COc1ccnc(N)c1` [Compound 20, (R)-2-(((2-aminopyridin-4-yl)oxy)methyl)pyrrolidine-1-carbonitrile] is 5.00 to 6.00; for `Nc1ccc(CC(NC(=O)C2CCCC2)C(=O)COc2c(F)c(F)cc(F)c2F)cn1` (stereo not drawn) [Compound 53, N-(1-(6-aminopyridin-3-yl)-3-oxo-4-(2,3,5,6-tetrafluorophenoxy)butan-2-yl)cyclopentanecarboxamide] it is over 7.00.
The same measure, in the same setting: next, `CNc1cc(OCC2CCCN2C#N)ccn1` (stereo not drawn) [Compound 22, 2-(((2-(methylamino)pyridin-4-yl)oxy)methyl)pyrrolidine-1-carbonitrile]: 6.00 to 7.00.
On the same count and under the same terms, the figure for `Nc1ccc(CCC(NC(=O)C2CCCC2)C(=O)COc2ccon2)cn1` (stereo not drawn) [Compound 74, N-(5-(6-aminopyridin-3-yl)-1-(isoxazol-3-yloxy)-2-oxopentan-3-yl)cyclopentanecarboxamide] is over 7.00.
Regarding `CC(c1ccc2c(N)nccc2c1)N(C)C#N` (stereo not drawn) [Compound 46, N-(1-(1-aminoisoquinolin-6-yl)ethyl)-N-methylcyanamide], the negative-log IC50 (pIC50) was 5.00 to 6.00.
Molecule `N#CN1CCC(COc2ccnc(N)c2)C1` (stereo not drawn) [Compound 47, 3-(((2-aminopyridin-4-yl)oxy)methyl)pyrrolidine-1-carbonitrile] gave a negative logarithm of the IC50 (pIC50) of 5.00 to 6.00.
The same measure, in the same setting: the figure for `CN(C)c1cc(OCC2CCCN2C#N)ccn1` (stereo not drawn) [Compound 23, 2-(((2-(dimethylamino)pyridin-4-yl)oxy)methyl)pyrrolidine-1-carbonitrile] is 4.00 to 5.00.
`N#CN1CCC[C@H]1COc1ccnc(N)c1Cl` [Compound 42, (S)-2-(((2-amino-3-chloropyridin-4-yl)oxy)methyl)pyrrolidine-1-carbonitrile] had a negative logarithm of the IC50 (pIC50) of 4.00 to 5.00.
The same measure, in the same setting: the figure for `CC(C)N(C#N)CCc1ccnc(N)c1` [Compound 5, N-(2-(2-aminopyridin-4-yl)ethyl)-N-isopropylcyanamide] is 4.00 to 5.00; for `Nc1cc(CC(NC(=O)C2CCCC2)C(=O)COc2c(F)c(F)cc(F)c2F)ccn1` (stereo not drawn) [Compound 54, N-(1-(2-aminopyridin-4-yl)-3-oxo-4-(2,3,5,6-tetrafluorophenoxy)butan-2-yl)cyclopentanecarboxamide] it is over 7.00.
`CN(C#N)c1ccccc1Oc1ccnc(N)c1` [Compound 27, N-(2-((2-aminopyridin-4-yl)oxy)phenyl)-N-methylcyanamide] had a pIC50 of under 4.00.
Same read-out and setting: the figure for `CNc1nccc2cc([C@H]3CCCN3C#N)ccc12` [Compound 51b, (R)-2-(1-(methylamino)isoquinolin-6-yl)pyrrolidine-1-carbonitrile] is 4.00 to 5.00; for `CC(C)N(C#N)CCOc1ccnc(N)c1` [Compound 39, N-(2-((2-aminopyridin-4-yl)oxy)ethyl)-N-isopropylcyanamide] it is 4.00 to 5.00; for `Nc1ccc(CC(NC(=O)C2CCCC2)C(=O)COc2ccon2)cn1` (stereo not drawn) [Compound 68, N-(1-(6-aminopyridin-3-yl)-4-(isoxazol-3-yloxy)-3-oxobutan-2-yl)cyclopentanecarboxamide] it is over 7.00.
In the case of `N#CN1CCC(Sc2ccnc(N)c2)C1` (stereo not drawn) [Compound 38, 3-((2-aminopyridin-4-yl)thio)pyrrolidine-1-carbonitrile], the pIC50 was 4.00 to 5.00.
The same measure, in the same setting: next, `Nc1ccc(C[C@H](NC(=O)C2CCCC2)C(=O)COc2c(F)c(F)cc(F)c2F)cn1` [Compound 56, (S)—N-(1-(6-aminopyridin-3-yl)-3-oxo-4-(2,3,5,6-tetrafluorophenoxy)butan-2-yl)cyclopentanecarboxamide]: over 7.00; `N#CN1CCC(Oc2ccnc(N)c2)CC1` [Compound 8, 4-((2-aminopyridin-4-yl)oxy)piperidine-1-carbonitrile]: under 4.00; `Nc1cc(CC(NC(=O)C2CCCC2)C(=O)COc2c(F)cccc2F)ccn1` (stereo not drawn) [Compound 55, N-(1-(2-aminopyridin-4-yl)-4-(2,6-difluorophenoxy)-3-oxobutan-2-yl)cyclopentanecarboxamide]: over 7.00.
The same measure, in the same setting: next, `N#CN1C[C@@H](O)C[C@@H]1c1ccc2c(N)nccc2c1` [Compound 50b, (2R,4S)-2-(1-aminoisoquinolin-6-yl)-4-hydroxypyrrolidine-1-carbonitrile]: over 7.00.
Still for that read-out and setting: next, `N#CN1C[C@H](O)C[C@@H]1c1ccc2c(N)nccc2c1` [Compound 49, (2R,4R)-2-(1-aminoisoquinolin-6-yl)-4-hydroxypyrrolidine-1-carbonitrile]: over 7.00; `N#CN1CCN(c2ccnc(N)c2)CC1` [Compound 33, 4-(2-aminopyridin-4-yl)piperazine-1-carbonitrile]: 5.00 to 6.00; `N#CN1CCC[C@H]1COc1cc(N)ncc1Br` [Compound 30, (S)-2-(((2-amino-5-bromopyridin-4-yl)oxy)methyl)pyrrolidine-1-carbonitrile]: 4.00 to 5.00.
The molecule `CN(C#N)Cc1cc2c(N)nccc2o1` [Compound 4, N-((4-aminofuro[3,2-c]pyridin-2-yl)methyl)-N-methylcyanamide] showed a pIC50 of 4.00 to 5.00.
The same measure, in the same setting: the figure for `CC(C)N(C#N)CCCc1ccnc(N)c1` [Compound 6, N-(3-(2-aminopyridin-4-yl)propyl)-N-isopropylcyanamide] is 4.00 to 5.00; for `N#CN(CCOc1ccnc(N)c1)C1CCCCC1` [Compound 40, N-(2-((2-aminopyridin-4-yl)oxy)ethyl)-N-cyclohexylcyanamide] it is 4.00 to 5.00.
Molecule `CN(C#N)C(COc1ccnc(N)c1)c1ccccc1` (stereo not drawn) [Compound 36, N-(2-((2-aminopyridin-4-yl)oxy)-1-phenylethyl)-N-methylcyanamide] showed a pIC50 of 5.00 to 6.00.
On the same count and under the same terms, the figure for `N#CN1CCCC1c1ccc2c(N)nccc2c1` (stereo not drawn) [Compound 45, 2-(1-aminoisoquinolin-6-yl)pyrrolidine-1-carbonitrile] is over 7.00.
On the same count and under the same terms, the figure for `N#CN1CCC[C@H]1c1ccc2c(N)nccc2c1` [Compound 44, (S)-2-(1-aminoisoquinolin-6-yl)pyrrolidine-1-carbonitrile] is 6.00 to 7.00; for `CC(C)C(COc1ccnc(N)c1)N(C)C#N` (stereo not drawn) [Compound 34, N-(1-((2-aminopyridin-4-yl)oxy)-3-methylbutan-2-yl)-N-methylcyanamide] it is 5.00 to 6.00; for `Nc1cc(CCC(NC(=O)C2CCCC2)C(=O)COc2ccon2)ccn1` (stereo not drawn) [Compound 71, N-(5-(2-aminopyridin-4-yl)-1-(isoxazol-3-yloxy)-2-oxopentan-3-yl)cyclopentanecarboxamide] it is 6.00 to 7.00.
Same read-out and setting: next, `CC(COc1ccnc(N)c1)N(C)C#N` (stereo not drawn) [Compound 14, N-(1-((2-aminopyridin-4-yl)oxy)propan-2-yl)-N-methylcyanamide]: 6.00 to 7.00; `N#CN1CCCC1CCOc1ccnc(N)c1` (stereo not drawn) [Compound 16, 2-(2-((2-aminopyridin-4-yl)oxy)ethyl)pyrrolidine-1-carbonitrile]: 4.00 to 5.00; `N#CN1CCCCC1COc1ccnc(N)c1` (stereo not drawn) [Compound 12, 2-(((2-aminopyridin-4-yl)oxy)methyl)piperidine-1-carbonitrile]: 6.00 to 7.00.
The molecule `Nc1cc(CC(NC(=O)C2CCCC2)C(=O)COc2c(F)ccc(F)c2F)ccn1` (stereo not drawn) [Compound 69, N-(1-(2-aminopyridin-4-yl)-3-oxo-4-(2,3,6-trifluorophenoxy)butan-2-yl)cyclopentanecarboxamide] had a pIC50 of over 7.00.
The same measure, in the same setting: next, `N#CN1CCC(Oc2ccnc(N)c2)C1` (stereo not drawn) [Compound 2, 3-((2-aminopyridin-4-yl)oxy)pyrrolidine-1-carbonitrile]: 6.00 to 7.00; `Nc1ccc(CC(NC(=O)C2CCCC2)C(=O)COc2c(F)cccc2F)cn1` (stereo not drawn) [Compound 67, N-(1-(6-aminopyridin-3-yl)-4-(2,6-difluorophenoxy)-3-oxobutan-2-yl)cyclopentanecarboxamide]: over 7.00; `CCC(COc1ccnc(N)c1)N(C)C#N` (stereo not drawn) [Compound 35, N-(1-((2-aminopyridin-4-yl)oxy)butan-2-yl)-N-methylcyanamide]: 5.00 to 6.00.
Same read-out and setting: next, `COC(C)(C)C(=O)NC(Cc1ccnc(N)c1)C(=O)COc1ccon1` (stereo not drawn) [Compound 63, N-(1-(2-aminopyridin-4-yl)-4-(isoxazol-3-yloxy)-3-oxobutan-2-yl)-2-methoxy-2-methylpropanamide]: 5.00 to 6.00.

The test is the same for the next values; noted with them: Activity (RgpB IC50), compound not tested above 1 μM; 0.02 nM RgpB, 10 μM Boc-Phe-Ser-Arg-MCA, 90 minutes, 37° C.
`COC(C)(C)C(=O)NC(Cc1ccc(N)nc1)C(=O)COC(C(F)(F)F)C(F)(F)F` (stereo not drawn) [Compound 72, N-(1-(6-aminopyridin-3-yl)-4-((1,1,1,3,3,3-hexafluoropropan-2-yl)oxy)-3-oxobutan-2-yl)-2-methoxy-2-methylpropanamide]: the pIC50 was under 6.00.
Same read-out and setting: the figure for `CN(C)c1nccc2cc([C@@H]3CCCN3C#N)ccc12` [Compound 52a, (S)-2-(1-(dimethylamino)isoquinolin-6-yl)pyrrolidine-1-carbonitrile] is under 6.00.
On the same count and under the same terms, the figure for `CN(C)c1nccc2cc([C@H]3CCCN3C#N)ccc12` [Compound 52b, (R)-2-(1-(dimethylamino)isoquinolin-6-yl)pyrrolidine-1-carbonitrile] is under 6.00.
